Reference: PubChem BioAssay (NCI)
“And” between values parts separate entries of the source, which are not always exact repeats. Identical values can stand only once.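 Assay format: 96-well plates, 48-hour exposure. The concentration for 50% growth inhibition is given as GI50. Definition used: TGI = concentration required for complete inhibition of growth.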 *1 amine or outer side, *2 acyl side, *3 side chain or, on linkers, in order; H or OH if unused. Where a SMILES comes first, the peptide text is derived from it. Bridges are numbered along the chain shown (N, C = ends). [ ]: non-standard residue; d: D form. ξ: configuration not given here. X4 = CCC(C)C(N[*:1])C(O)CC(=O)O[C@H](C(=O)C(C)C(=O)[*:2])C(C)C; NMeY = CN[C@@H](Cc1ccc(O)cc1)C(=O)O; ξNMeL = CNC(CC(C)C)C(=O)O; ξT = CC(O)C(N)C(=O)O

Experiments:
Test in all cases: NCI anticancer screen, dose series, 48 h
NCI-H460 lung = tested on: NCI-H460 lung
A549 NSCLC = tested on: A549 NSCLC
M14 melanoma = tested on: M14 melanoma
786-0 renal = tested on: 786-0 renal
MOLT-4 leukemia = tested on: MOLT-4 leukemia
COLO 205 colon = tested on: COLO 205 colon

| SMILES | TGI (NCI-H460 lung) [µM] | TGI (A549 NSCLC) | TGI (M14 melanoma) [µM] | TGI (786-0 renal) | TGI (MOLT-4 leukemia) [µM] | TGI (COLO 205 colon) [µM] | GI50 (NCI-H460 lung) [µM] | GI50 (M14 melanoma) [µM] | GI50 (MOLT-4 leukemia) [µM] |
| --- | --- | --- | --- | --- | --- | --- | --- | --- | --- |
| O=C(N=Nc1ccccc1Br)NNc1ccccc1Br | > 100 | > 100 µM | > 100 | > 100 µM | > 100 | – | – | – | – |
| O=C(NNC(=S)Nc1ccccc1)c1csc(NC(=S)NC2CCCCC2)n1 | – | > 100 µM | > 100 | > 100 µM | > 100 | > 100 | – | – | – |
| O=C(Nc1cccc(-c2cn3ccccc3n2)c1)c1ccncc1 | 39 | > 100 µM | > 100 | > 100 µM | 52.6 | 88.8 | – | – | – |
| COc1ccc(-c2c(C#N)c(-c3ccccc3)n(NS(=O)(=O)c3ccccc3)c(=O)c2C#N)cc1 | > 100 | > 100 µM | > 100 | > 100 µM | 91.2 | > 100 | – | – | – |
| CSCCC(NC(=O)OC(C)(C)C)C(=O)NCCNc1ccc(NCCNC(=O)C(CCSC)NC(=O)OC(C)(C)C)c2c1C(=O)c1ccccc1C2=O (stereo unspecified) | 23.1 | 7.93 µM | 14.1 | 12.8 µM | 11.5 | 5.41 | – | – | – |
| CCCCN(c1ccccc1)c1ncnc2c1cnn2C | > 100 | > 100 µM | > 100 | > 100 µM | 40.8 | > 100 | – | – | – |
| COC(OC)C(O)C1OC=CC1n1cnc2c(N)ncnc21 (stereo unspecified) | > 100 | – | – | > 100 µM | > 100 | > 100 | – | – | – |
| CC1(C)[C@@H]2C[C@H]1c1cnc(-c3ccccn3)cc1C2[C@@H]1c2cc(-c3ccccn3)ncc2[C@@H]2C[C@H]1C2(C)C (stereo partly specified) | > 100 | > 100 µM | > 100 | > 100 µM | > 100 | > 100 | – | – | – |
| O=C1OS2(OCc3cccc4cccc2c34)c2ccccc21 (stereo unspecified) | > 100 | > 100 µM | > 100 | > 100 µM | > 100 | > 100 | – | – | – |
| C/C=C/[C@H]1O[C@@](OC)([C@@H](C)[C@H](O)[C@H](C)[C@H]2OC(=O)/C(OC)=C/C(C)=C/[C@@H](C)[C@@H](O)[C@@H](C)[C@@H](O)[C@H](C)C/C(C)=C/C=C/[C@@H]2OC)CC(OC2CC(O)C(OC(N)=O)C(C)O2)[C@@H]1C (stereo partly specified) | 4.17 | 14.8 µM | < 0.0124 | 10.4 µM | < 0.01 | 1.8 | – | – | – |
| COC(=O)c1cncc2c1CC1C3(C(=O)OC)C=NC(C4C(CO)=CCC43)C21C (stereo unspecified) | > 100 | > 100 µM | > 100 | > 100 µM | > 100 | > 100 | – | – | – |
| O=C(c1ccco1)N(C(=S)OCc1ccccn1)c1ccccc1 | – | – | > 100 | > 100 µM | > 100 | > 100 | – | – | – |
| O=C1C=CC(=O)c2ncccc21 | 17.5 | 28.8 µM | 13.1 | 7.61 µM | > 24.1 | 7.64 | – | – | – |
| O=C1[C@@H]2Cc3c([nH]c4ccccc34)C(C3CCCCC3)N2C(=O)[C@@H]2CCCN12 (stereo partly specified) | – | > 100 µM | > 100 | 75.9 µM | 57 | 42.9 | – | – | – |
| O=C1c2ccccc2CC12Cc1ccc3c(c1C2)CCC3 (stereo unspecified) | 79.2 | 64.2 µM | 49.1 | 51.7 µM | > 100 | 59.3 | – | – | – |
| CC(C)(C)N1Cc2ccccc2/C(=C/Sc2ccccc2)C1=O | 30 | 37.6 µM | 25.2 | 24.8 µM | 48.4 | 39 | – | – | – |
| OC1OC(c2ccco2)C(F)(F)C(F)(F)C1(F)F (stereo unspecified) | > 100 | > 100 µM | > 100 | > 100 µM | – | > 100 | – | – | – |
| CCC(C)C1NC(=O)C(NC(=O)C(CC(C)C)N(C)C(=O)[C@@H]2CCCN2)C(C)OC(=O)[C@H](Cc2ccc(OC)cc2)N(C)C(=O)[C@@H]2CCCN2C(=O)[C@H](CC(C)C)NC(=O)C(C)C(=O)[C@H](C(C)C)OC(=O)CC1O (stereo partly specified) (H-P[ξNMeL][ξT][X4]LP[NMeY](Me); ester 3-C) | – | 0.0246 µM and 0.0289 µM | 0.00865 | 0.0115 µM and 0.0174 µM | 0.00507 | – | – | – | – |
| O=C1NC(N/N=C\c2ccccc2)=N/C1=C/c1ccc(Cl)cc1 | 53.5 | 62.9 µM | > 100 | > 100 µM | 33.9 | > 100 | – | – | – |
| N#CCc1nc(C#N)c(N)o1 | > 100 | > 100 µM | > 100 | > 100 µM | > 100 | > 100 | – | – | – |
| NC(CCCCNC(=O)OCc1ccccc1)C(=O)NC(CCCCNC(=O)OCc1ccccc1)C(=O)ON1C(=O)CCC1=O (stereo unspecified) | > 100 | > 100 µM | > 100 | > 100 µM | > 100 | > 100 | – | – | – |
| NC(N)=N/N=C/c1nc2sccn2c1[N+](=O)[O-] | 40.9 | > 100 µM | 52.7 | > 100 µM | – | 29.7 | – | – | – |
| COc1ccc(OC)c2cc(Cc3ccc(N(C)C)cc3)c(=O)c(Cc3ccc(N(C)C)cc3)cc12 | > 100 | > 100 µM | > 100 | > 100 µM | > 100 | > 100 | – | – | – |
| COC(=O)C(COC(=O)/C=C/c1ccc(OC(C)=O)c(OC(C)=O)c1)OC(=O)/C=C/c1ccc(OC(C)=O)c(OC(C)=O)c1 (stereo unspecified) | 57.2 | 41.6 µM | 20.6 | 24 µM | 7.2 | 30 | – | – | – |
| CCCCCCCCCCCCCCCCNc1nc(=O)n(C2CC(O)C(CO)O2)cc1F (stereo unspecified) | 27.3 | 18.7 µM | 27.2 | 21.7 µM | 37.7 | 48.6 | – | – | – |
| CC[N+](C)(CC)CCN1C(=O)c2ccccc2S1(=O)=O | > 100 | > 100 µM | > 100 | > 100 µM | > 100 | > 100 | – | – | – |
| CC1=CC[C@@H]2CC[C@]3(C)[C@H](CC[C@@H]4[C@@]5(C)CCCNC(C)(C)[C@@H]5CC[C@]43C)[C@H]2[C@@H]1C | 3.09 | – | 3.26 | – | – | – | 1.48 | 1.73 | – |
| CSc1nncc(-c2cc3c(c(SC)n2)CCC3)n1 | – | > 100 µM | > 100 | > 100 µM | – | > 100 | – | – | – |
| CC[N+](CC)=c1ccc2nc3c(cc(N)c4ccccc43)oc-2c1 | – | – | 0.61 | – | 0.334 | – | – | 0.216 | 0.122 |
| COc1cc(C2C3=C(COC3=O)OC(C)(C)Oc3cc4c(cc32)OCO4)cc(OC)c1OC (stereo unspecified) | > 100 | > 100 µM | – | – | > 100 | 0.552 | – | – | – |
